The source of these data is article PMC3983396 (Journal of medicinal chemistry, 2014).

Molecules are shown by their SMILES.

By GI50 is commonly meant the concentration that inhibits growth by half. For orientation: IC50 means the concentration that gives 50% inhibition.

Data set [1] is described as follows: Water solubility of salts. Type of data set: physicochemical. Conditions: compared to the salts of monocyclic amines (7m and 7s).
The test system of the next data set is CDKs 1, 2, 5, 8 and 9. Kind of data set: In vitro kinase assay, other CDKs. It counts as biochemical. Particulars: data not shown.
For data set [2], the system named is MCF-7 and MDA-MB-231 cells. Kind of data set: Flow cytometry after prolonged treatment. Type of data set: cell-based, human. Conditions: greater than 48 h. A general note: In flow cytometry, cells or beads pass a laser one at a time.
Another data set relates to human tumor cell lines. Kind of data set: Growth arrest of a panel of human tumor cell lines. Type of data set: cell-based. Particulars: read-out: GI50 values, growth arrest of most tumor cell lines.
A further data set has as its system CD-1 female mice. Particulars: CD-1, mouse, in vivo.
Data set [3] deals with MDA-MB-231 tumor xenograft. Nature of the data set: Orthotopic nude mouse assay. It counts as in vivo.
A further data set concerns tumor cells. Kind of data set: Induction of apoptosis of tumor cells. It counts as cell-based.
The subject of data set [4] is AKT phosphorylation in MDA-MB-231 cells. Nature of the data set: AKT phosphorylation. Type of data set: cell-based, human. Particulars: MDA-MB-231, increasing concentrations, 24 h.
For data set [5], the system named is PARP cleavage in MCF-7 and MDA-MB-231 cells. Nature of the data set: PARP cleavage, Western blot. Type of data set: cell-based, human. Conditions: 24 h, 1 μM.
The test system of the next data set is CDK6. Particulars: read-out: IC50 CDK6; cited from earlier work.
The next data set relates to CDK4. Particulars: read-out: IC50 CDK4; cited from earlier work.

On to `N#Cc1cc2cnc(Nc3ccc(N4CCOCC4)cc3)nc2n(C2CCCC2)c1=O` [7t, 8-Cyclopentyl-2-(4-morpholin-4-yl-phenylamino)-7-oxo-7,8-dihydro-pyrido[2,3-d]pyrimidine-6-carbonitrile], for which the “water solubility of salts” value in data set [1] is reported as “enhanced water solubility”.
In the case of `N#Cc1cc2cnc(Nc3ccc(N4CCOCC4)cn3)nc2n(C2CCCC2)c1=O` [7u, 8-Cyclopentyl-2-(5-morpholin-4-yl-pyridin-2-ylamino)-7-oxo-7,8-dihydro-pyrido[2,3-d] pyrimidine-6-carbonitrile], the “water solubility of salts” value in [1] is recorded as “enhanced water solubility”.
For the molecule `CN1CCN(c2ccc(Nc3ncc4cc(C#N)c(=O)n(C5CCCC5)c4n3)nc2)CC1` [7v, 8-Cyclopentyl-2-[5-(4-methyl-piperazin-1-yl)-pyridin-2-ylamino]-7-oxo-7,8-dihydro-pyrido[2,3-d]pyrimidine-6-carbonitrile], in data set [1], the “water solubility of salts” value is on record as “enhanced water solubility”.
For `N#Cc1cc2cnc(N3CCN(c4ccc(C(F)(F)F)cn4)CC3)nc2n(C2CCCC2)c1=O` [7w, 8-Cyclopentyl-7-oxo-2-[4-(5-trifluoromethyl-pyridin-2-yl)-piperazin-1-yl]-7,8-dihydro-pyrido[2,3-d]pyrimidine-6-carbonitrile], the “water solubility of salts” value in data set [1] was “enhanced water solubility”.
In the case of `CN1CCN(c2ccc(Nc3ncc4cc(C#N)c(=O)n(C5CCCC5)c4n3)cc2)CC1` [7x, 8-Cyclopentyl-2-[4-(4-methyl-piperazin-1-yl)-phenylamino]-7-oxo-7,8-dihydro-pyrido[2,3-d]pyrimidine-6-carbonitrile], in the data set on CDKs 1, 2, 5, 8 and 9, the “inhibitory activity against CDKs 1, 2, 5, 8 and 9” value is recorded as “little inhibitory activity”. In data set [2], the “sub-G1 population (apoptosis)” value is recorded as “appearance of a sub-G1 population”. Further, the GI50 with human tumor cell lines lay in the range of 25 to 2000 nM. For the same molecule, in the data set on CD-1 female mice, the “mice surviving more than 10 days after injection” value is 100%. For the same molecule, in [3] (50 mg/kg Q2D IP, 21 day period), the tumor growth result is “dose-dependent inhibition of tumor growth”. Besides, in data set [3] (50 mg/kg Q2D IP, body weights), the “signs of toxicity in treated groups” value is reported as “No overt signs of toxicity”. Moreover, the “tumor weight at the end-point of the study” value in data set [3] (data not shown) is recorded as “decrease in tumor weight”. Also, in the data set with tumor cells, the “concentration inducing apoptosis of tumor cells” value fell in the range of 30 to 100 nM. The “phosphorylation of AKT (Ser473)” value in data set [4] was “inhibits the phosphorylation of AKT”. For the same molecule, in data set [5], the “PARP cleavage (~89 kDa cleaved polypeptide)” value is “dose-dependent accumulation of the ~89 kDa cleaved PARP polypeptide”.
Take `CC(=O)c1c(C)c2cnc(Nc3ccc(N4CCNCC4)cn3)nc2n(C2CCCC2)c1=O` [PD-0332991, Palbociclib, reference compound]: the figures for the IC50 with CDK6 and with CDK4 were 15 nM and […], respectively. The “sub-G1 population (apoptosis)” value in [2] was “absent”. Further, the “PARP cleavage (~89 kDa cleaved polypeptide)” value in data set [5] is given as “not observed”.
